SMILES strings stand for the structures. Converted amounts (≈) assume the structure as drawn.

Assay [1] deals with Staphylococcus aureus. Nature of the assay: Antibacterial activity against methicillin-susceptible Staphylococcus aureus 42 incubated for 18 to 24 hrs by broth microdilution assay. It counts as functional.
The target in another assay is DNA gyrase subunit B (Staphylococcus aureus, UniProt P0A0K8). Nature of the assay: Inhibition of Staphylococcus aureus DNA gyraseB ATPase activity using linear pBR322 DNA substrate incubated for 30 mins by fluorescence polarization assay.
The subject of another assay is Enterococcus faecium. Nature of the assay: Antibacterial activity Enterococcus faecium ATCC 6569 incubated for 18 to 24 hrs by broth microdilution assay. The format is functional.
The target in assay [2] is DNA topoisomerase 4 subunit B (Staphylococcus aureus, UniProt P0C1S7). Nature of the assay: Inhibition of Staphylococcus aureus DNA parE ATPase activity incubated for 30 mins by fluorescence polarization assay.
Another assay has as its system Streptococcus pneumoniae. Nature of the assay: Antibacterial activity Streptococcus pneumoniae ATCC 6303 incubated for 18 to 24 hrs by broth microdilution assay. It counts as functional.
For assay [3], the system named is Staphylococcus aureus. Nature of the assay: Antibacterial activity against ciprofloxacin/methicillin-resistant Staphylococcus aureus 1721 incubated for 18 to 24 hrs by broth microdilution assay. The format is functional.
Assay [4] concerns Staphylococcus aureus. Nature of the assay: Antibacterial activity against methicillin-resistant Staphylococcus aureus 1118 incubated for 18 to 24 hrs by broth microdilution assay. The format is functional.

As for `CCCn1c(=O)ccc2c(-c3ncc(-c4cccnc4)s3)n[nH]c21`, 4 µg/mL (≈ 11.9 µM) was the least that counted as inhibitory against Staphylococcus aureus [1] (MIC). The IC50 against DNA gyrase subunit B turned out to be 9 nM.
The corresponding values for `CCn1c(=O)c(CO)cc2c(-c3cnc(-c4cccnc4)s3)n[nH]c21` are over 32 µg/mL and 202 nM.
Consider `CCCn1c(=O)ccc2c(-c3nc(C(=O)N(C)C)c(-c4cccnc4)s3)n[nH]c21`, for which, in the assay on Staphylococcus aureus [1], the MIC was determined as 4 µg/mL (≈ 9.79 µM). On DNA gyrase subunit B, this compound showed an IC50 of 13 nM.
Compound `CCCn1c(=O)ccc2c(-c3cnc(-c4ccc(C(=O)OC)nc4)s3)n[nH]c21` displayed an MIC with Staphylococcus aureus [1] of 0.5 µg/mL (≈ 1.26 µM). The compound also displayed an IC50 at DNA gyrase subunit B of 15 nM.
As for `CCCn1c(=O)ccc2c(-c3cnc(-c4ccc(N5CCN(C)CC5)nc4)s3)n[nH]c21`, in the assay with Staphylococcus aureus [1], the MIC worked out at 2 µg/mL (≈ 4.59 µM). Further, the IC50 against DNA gyrase subunit B amounted to 8 nM.
For `CCn1c(=O)c(C)cc2c(-c3cnc(-c4cccnc4)s3)n[nH]c21`, inhibition of growth with Staphylococcus aureus [1] (MIC) required 2 µg/mL (≈ 5.93 µM). Moreover, the IC50 against DNA gyrase subunit B came to 35 nM.
The corresponding values for `CCCn1c(=O)ccc2c(-c3cnc(-c4ccc(C)nc4)s3)n[nH]c21` are 0.25 µg/mL (≈ 0.711 µM) and under 8 nM.
The corresponding values for `CCCn1c(=O)ccc2c(-c3cnc(-c4ccc(CN(CC)CC)nc4)s3)n[nH]c21` are 4 µg/mL (≈ 9.47 µM) and 9 nM.
The like results for `O=c1ccc2c(-c3cnc(-c4cccnc4)s3)n[nH]c2n1CCO` were, in that order, over 32 µg/mL and 564 nM.
As for `COc1c(N2C[C@@H]3CCCN[C@@H]3C2)c(F)cc2c(=O)c(C(=O)O)cn(C3CC3)c12` [MOXIFLOXACIN], the MIC in the assay on Staphylococcus aureus [1] is 0.06 µg/mL (≈ 0.149 µM).
Turning to `CCCn1c(=O)ccc2c(-c3cnc(-c4ccc(CN5CCOCC5)nc4)s3)n[nH]c21`, it took 0.5 µg/mL (≈ 1.15 µM) to inhibit growth in the assay with Staphylococcus aureus [1] (MIC). The IC50 on DNA gyrase subunit B is under 8 nM.
The compound `CCCn1c(=O)ccc2c(-c3cncs3)n[nH]c21` came in with an MIC against Staphylococcus aureus [1] of over 32 µg/mL. Also, it took 279 nM to reach half-maximal inhibition against DNA gyrase subunit B (IC50).
The like results for `CCCn1c(=O)ccc2c(-c3cnc(-c4ccc(C(=O)N(C)C)nc4)s3)n[nH]c21` were, in that order, 2 µg/mL (≈ 4.9 µM) and 8 nM.
Regarding `CCn1c(=O)ccc2c(-c3cnc(-c4cccnc4)s3)n[nH]c21`, the MIC against Staphylococcus aureus [1] turned out to be 2 µg/mL (≈ 6.18 µM); with Enterococcus faecium it was 4 µg/mL (≈ 12.4 µM); against Streptococcus pneumoniae, 4 µg/mL (≈ 12.4 µM); against Staphylococcus aureus [3] it was 4 µg/mL (≈ 12.4 µM); in the assay with Staphylococcus aureus [4], 2 µg/mL (≈ 6.18 µM). The results for the IC50 (in assay [2]; on DNA gyrase subunit B) were 746 nM and 20 nM, respectively.
Consider `CCCn1c(=O)ccc2c(-c3cnc(-c4ccc(CN5CCN(C)CC5)nc4)s3)n[nH]c21`, for which, in the assay with Staphylococcus aureus [1], the MIC was determined as 4 µg/mL (≈ 8.9 µM). This compound gave an IC50 against DNA gyrase subunit B of 10 nM.
With `CCCn1c(=O)ccc2c(-c3cnc(-c4cccnc4)s3)n[nH]c21`, the minimal inhibitory concentration (MIC) in the assay with Staphylococcus aureus [1] turned out to be 0.06 µg/mL (≈ 0.178 µM); in the assay with Enterococcus faecium, 0.125 µg/mL (≈ 0.37 µM); in the assay on Streptococcus pneumoniae, 0.25 µg/mL (≈ 0.741 µM); against Staphylococcus aureus [3], 0.06 µg/mL (≈ 0.178 µM); in the assay on Staphylococcus aureus [4] it was 0.06 µg/mL (≈ 0.178 µM). For the same compound, the IC50 in assay [2] was determined as 183 nM; against DNA gyrase subunit B, 6 nM.
Compound `C=CCn1c(=O)ccc2c(-c3cnc(-c4cccnc4)s3)n[nH]c21` gave an MIC with Staphylococcus aureus [1] of 0.25 µg/mL (≈ 0.745 µM). Moreover, on DNA gyrase subunit B, the IC50 was 4 nM.
In turn, `Cn1c(=O)ccc2c(-c3cnc(-c4cccnc4)s3)n[nH]c21` yielded an MIC in the assay with Staphylococcus aureus [1] of over 32 µg/mL. This compound also returned an IC50 on DNA gyrase subunit B of 51 nM.
With `CCCn1c(=O)ccc2c(-c3cnc(-c4ccc(C(C)C)nc4)s3)n[nH]c21`, in the assay with Staphylococcus aureus [1], the lowest concentration to inhibit growth (MIC) was 1 µg/mL (≈ 2.64 µM). On DNA gyrase subunit B, this compound displayed an IC50 of 23 nM.
Consider `CCCn1c(=O)ccc2c(C3CCN(c4nc(C(=O)O)c(C)s4)CC3)n[nH]c21`, for which the minimal inhibitory concentration (MIC) against Staphylococcus aureus [1] was over 32 µg/mL. The compound also gave an IC50 against DNA gyrase subunit B of 192 nM.
In the assay with Staphylococcus aureus [1], `O=c1ccc2c(-c3cnc(-c4cccnc4)s3)n[nH]c2[nH]1` registered an MIC of over 32 µg/mL. On DNA gyrase subunit B, the IC50 came out at 270 nM.
The corresponding values for `CCCn1c(=O)ccc2c(-c3cnc(-c4ccc(C(=O)NCCN(CC)CC)nc4)s3)n[nH]c21` are 1 µg/mL (≈ 2.09 µM) and under 8 nM.
The corresponding values for `CCn1c(=O)c(C(=O)NC)cc2c(-c3cnc(-c4cccnc4)s3)n[nH]c21` are over 32 µg/mL and 3350 nM.
Regarding `CCCn1c(=O)ccc2c(-c3nc(C(=O)OC)c(-c4cccnc4)s3)n[nH]c21`, the lowest concentration to inhibit growth against Staphylococcus aureus [1] (MIC) was 0.25 µg/mL (≈ 0.632 µM). At DNA gyrase subunit B, this compound registered an IC50 of 6 nM.
The corresponding values for `CCCn1c(=O)ccc2c(-c3cnc(-c4ccc(C(=O)NCCN5CCOCC5)nc4)s3)n[nH]c21` are 2 µg/mL (≈ 4.05 µM) and 13 nM.
With `CCCn1c(=O)ccc2c(-c3cnc(-c4ccc(CO)nc4)s3)n[nH]c21`, in the assay with Staphylococcus aureus [1], 0.25 µg/mL (≈ 0.68 µM) was the least that counted as inhibitory (MIC). On DNA gyrase subunit B, the IC50 is under 8 nM.
Take `CCCn1c(=O)ccc2c(-c3cnc(-c4ccc(N(C)C)nc4)s3)n[nH]c21`: the MIC against Staphylococcus aureus [1] was determined as 0.5 µg/mL (≈ 1.31 µM). For the same compound, half-maximal inhibition against DNA gyrase subunit B (IC50) required 15 nM.
On to `O=c1cc(-c2ccccc2)c2c(-c3cnc(-c4cccnc4)s3)n[nH]c2[nH]1`, for which the IC50 on DNA gyrase subunit B came to 1320 nM.
On to `Cc1cc(=O)[nH]c2[nH]nc(-c3cnc(-c4cccnc4)s3)c12`, for which, on DNA gyrase subunit B, the IC50 turned out to be 3250 nM.

Source of the values: ChEMBL document CHEMBL3808315, “Discovery of Pyrazolopyridones as a Novel Class of Gyrase B Inhibitors Using Structure Guided Design” (ACS Med Chem Lett, 2016).
